Results: ChEMBL document CHEMBL5705888, “Substrate specificity and inhibitors of LRRK2, a protein kinase mutated in Parkinson's disease” (Biochem J, 2009)

Experiments:
[1] = target: T1, Mitogen-activated protein kinase 15 (Homo sapiens) (UniProt Q8TD08); assay: Inhibition of ERK8 (unknown origin) at 1 uM incubated for 30 mins in presence of [gamma-33P]ATP by multidrop micro reagent based assay relative to control; values are per cent of control
T1 sequence (whole entry): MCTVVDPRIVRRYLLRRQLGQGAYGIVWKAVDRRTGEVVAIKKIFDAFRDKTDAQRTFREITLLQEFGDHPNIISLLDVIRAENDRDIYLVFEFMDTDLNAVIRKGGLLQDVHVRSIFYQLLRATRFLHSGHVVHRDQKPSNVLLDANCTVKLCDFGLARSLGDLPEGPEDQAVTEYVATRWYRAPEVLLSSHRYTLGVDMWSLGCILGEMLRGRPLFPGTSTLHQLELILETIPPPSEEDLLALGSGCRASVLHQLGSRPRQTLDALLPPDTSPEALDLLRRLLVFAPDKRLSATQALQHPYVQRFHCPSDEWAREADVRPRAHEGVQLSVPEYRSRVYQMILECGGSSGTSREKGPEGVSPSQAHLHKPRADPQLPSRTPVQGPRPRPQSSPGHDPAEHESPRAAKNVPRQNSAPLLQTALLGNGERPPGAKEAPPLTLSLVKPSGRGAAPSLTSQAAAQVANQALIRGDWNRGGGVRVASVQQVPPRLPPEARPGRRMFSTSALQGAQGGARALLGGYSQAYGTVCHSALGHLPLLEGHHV

[2] = target: Serine/threonine-protein kinase pim-1 (Homo sapiens) (UniProt P11309); assay: Inhibition of PIM1 (unknown origin) at 1 uM incubated for 30 mins in presence of [gamma-33P]ATP by multidrop micro reagent based assay relative to control; values are per cent of control
Sequence of Serine/threonine-protein kinase pim-1 (Homo sapiens) (P11309 whole entry, looked up): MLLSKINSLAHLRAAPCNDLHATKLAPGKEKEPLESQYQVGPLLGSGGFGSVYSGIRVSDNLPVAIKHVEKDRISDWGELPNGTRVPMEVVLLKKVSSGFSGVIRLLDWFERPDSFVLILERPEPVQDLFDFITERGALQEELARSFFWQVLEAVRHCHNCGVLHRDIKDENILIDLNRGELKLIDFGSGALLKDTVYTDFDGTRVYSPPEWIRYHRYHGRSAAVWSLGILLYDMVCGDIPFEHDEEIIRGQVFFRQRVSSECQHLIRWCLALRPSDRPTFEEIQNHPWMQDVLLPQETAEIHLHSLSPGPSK

[3] = target: T2, NUAK family SNF1-like kinase 1 (Homo sapiens) (UniProt O60285); assay: Activity of NUAK1 (unknown origin) at 1 uM incubated for 30 mins in presence of [gamma-33P]ATP by multidrop micro reagent based assay relative to control
T2 sequence (whole entry): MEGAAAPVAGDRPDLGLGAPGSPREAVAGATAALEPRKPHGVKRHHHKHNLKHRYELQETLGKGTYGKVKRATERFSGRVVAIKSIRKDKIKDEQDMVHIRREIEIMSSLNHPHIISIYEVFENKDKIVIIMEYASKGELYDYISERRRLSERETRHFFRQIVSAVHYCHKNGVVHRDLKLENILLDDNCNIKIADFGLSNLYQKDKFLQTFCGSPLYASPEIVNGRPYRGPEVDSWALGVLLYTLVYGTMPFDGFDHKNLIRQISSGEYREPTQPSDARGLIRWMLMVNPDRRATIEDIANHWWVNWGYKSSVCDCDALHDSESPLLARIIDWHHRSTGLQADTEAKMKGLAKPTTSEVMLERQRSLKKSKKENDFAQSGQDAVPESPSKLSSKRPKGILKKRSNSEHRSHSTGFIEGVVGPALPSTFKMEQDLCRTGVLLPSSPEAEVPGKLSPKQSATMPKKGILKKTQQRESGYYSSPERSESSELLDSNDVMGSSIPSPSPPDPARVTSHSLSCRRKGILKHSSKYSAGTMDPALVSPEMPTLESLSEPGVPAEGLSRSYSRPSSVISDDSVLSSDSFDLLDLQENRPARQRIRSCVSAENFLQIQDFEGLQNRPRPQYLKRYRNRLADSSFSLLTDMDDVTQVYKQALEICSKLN

[4] = target: T3, Serine/threonine-protein kinase Sgk1 (Homo sapiens) (UniProt O00141); assay: Residual activity of SGK1 (unknown origin) at 10 uM incubated for 30 mins in presence of [gamma-33P]ATP by multidrop micro reagent based assay relative to control
T3 sequence (whole entry): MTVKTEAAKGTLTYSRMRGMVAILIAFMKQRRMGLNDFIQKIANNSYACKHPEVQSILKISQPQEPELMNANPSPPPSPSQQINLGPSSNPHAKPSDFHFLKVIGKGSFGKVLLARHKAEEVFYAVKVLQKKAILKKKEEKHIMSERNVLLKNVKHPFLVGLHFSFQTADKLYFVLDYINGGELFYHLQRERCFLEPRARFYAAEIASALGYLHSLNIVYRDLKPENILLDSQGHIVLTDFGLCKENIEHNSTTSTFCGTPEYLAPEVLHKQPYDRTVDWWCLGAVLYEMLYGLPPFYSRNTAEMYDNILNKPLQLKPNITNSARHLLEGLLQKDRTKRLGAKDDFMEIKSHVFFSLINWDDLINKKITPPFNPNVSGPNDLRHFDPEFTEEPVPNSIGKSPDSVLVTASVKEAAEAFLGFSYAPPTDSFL

[5] = target: Serine/threonine-protein kinase Nek6 (Homo sapiens) (UniProt Q9HC98); assay: Residual activity of NEK6 (unknown origin) at 10 uM incubated for 30 mins in presence of [gamma-33P]ATP by multidrop micro reagent based assay relative to control
Sequence of Serine/threonine-protein kinase Nek6 (Homo sapiens) (Q9HC98 whole entry): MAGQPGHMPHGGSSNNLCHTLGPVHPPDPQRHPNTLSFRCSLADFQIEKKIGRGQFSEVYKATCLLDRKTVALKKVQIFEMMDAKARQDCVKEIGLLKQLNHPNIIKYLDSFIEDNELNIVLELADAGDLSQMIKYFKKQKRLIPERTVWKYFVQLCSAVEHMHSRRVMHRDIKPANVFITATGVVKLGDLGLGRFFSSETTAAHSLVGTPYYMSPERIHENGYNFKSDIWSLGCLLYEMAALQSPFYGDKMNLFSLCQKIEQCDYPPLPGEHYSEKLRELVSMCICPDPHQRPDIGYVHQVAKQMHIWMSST

Homo sapiens = organism: Homo sapiens; assay: Inhibition of PHK (unknown origin) at 10 uM incubated for 30 mins in presence of [gamma-33P]ATP by multidrop micro reagent based assay relative to control; values are per cent of control
[6] = target: Serine/threonine-protein kinase PAK 5 (Homo sapiens) (UniProt Q9P286); assay: Inhibition of PAK5 (unknown origin) at 10 uM incubated for 30 mins in presence of [gamma-33P]ATP by multidrop micro reagent based assay relative to control; values are per cent of control
Sequence of Serine/threonine-protein kinase PAK 5 (Homo sapiens) (Q9P286 whole entry, looked up): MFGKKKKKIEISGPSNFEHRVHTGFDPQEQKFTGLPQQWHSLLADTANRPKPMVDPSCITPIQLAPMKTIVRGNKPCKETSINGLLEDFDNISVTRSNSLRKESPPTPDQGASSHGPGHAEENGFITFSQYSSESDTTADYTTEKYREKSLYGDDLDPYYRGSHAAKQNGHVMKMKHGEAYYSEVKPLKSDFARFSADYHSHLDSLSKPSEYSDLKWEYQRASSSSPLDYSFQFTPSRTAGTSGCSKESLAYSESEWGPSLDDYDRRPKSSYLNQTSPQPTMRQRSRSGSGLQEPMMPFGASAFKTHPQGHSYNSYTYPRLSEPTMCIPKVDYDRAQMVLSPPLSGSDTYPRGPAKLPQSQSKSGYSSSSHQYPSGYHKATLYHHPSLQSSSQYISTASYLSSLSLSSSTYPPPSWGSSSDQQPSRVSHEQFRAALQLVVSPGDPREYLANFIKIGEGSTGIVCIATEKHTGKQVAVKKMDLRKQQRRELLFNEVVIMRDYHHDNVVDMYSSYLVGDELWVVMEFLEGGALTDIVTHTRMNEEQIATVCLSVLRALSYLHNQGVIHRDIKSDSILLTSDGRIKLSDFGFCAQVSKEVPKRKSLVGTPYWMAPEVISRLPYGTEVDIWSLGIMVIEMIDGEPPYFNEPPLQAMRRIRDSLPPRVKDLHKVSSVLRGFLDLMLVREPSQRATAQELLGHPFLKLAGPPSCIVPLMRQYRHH

[7] = target: Mitogen-activated protein kinase kinase kinase 9 (Homo sapiens) (UniProt P80192); assay: Inhibition of MLK1 (unknown origin) at 10 uM incubated for 30 mins in presence of [gamma-33P]ATP by multidrop micro reagent based assay relative to control; values are per cent of control
Sequence of Mitogen-activated protein kinase kinase kinase 9 (Homo sapiens) (P80192 whole entry, looked up): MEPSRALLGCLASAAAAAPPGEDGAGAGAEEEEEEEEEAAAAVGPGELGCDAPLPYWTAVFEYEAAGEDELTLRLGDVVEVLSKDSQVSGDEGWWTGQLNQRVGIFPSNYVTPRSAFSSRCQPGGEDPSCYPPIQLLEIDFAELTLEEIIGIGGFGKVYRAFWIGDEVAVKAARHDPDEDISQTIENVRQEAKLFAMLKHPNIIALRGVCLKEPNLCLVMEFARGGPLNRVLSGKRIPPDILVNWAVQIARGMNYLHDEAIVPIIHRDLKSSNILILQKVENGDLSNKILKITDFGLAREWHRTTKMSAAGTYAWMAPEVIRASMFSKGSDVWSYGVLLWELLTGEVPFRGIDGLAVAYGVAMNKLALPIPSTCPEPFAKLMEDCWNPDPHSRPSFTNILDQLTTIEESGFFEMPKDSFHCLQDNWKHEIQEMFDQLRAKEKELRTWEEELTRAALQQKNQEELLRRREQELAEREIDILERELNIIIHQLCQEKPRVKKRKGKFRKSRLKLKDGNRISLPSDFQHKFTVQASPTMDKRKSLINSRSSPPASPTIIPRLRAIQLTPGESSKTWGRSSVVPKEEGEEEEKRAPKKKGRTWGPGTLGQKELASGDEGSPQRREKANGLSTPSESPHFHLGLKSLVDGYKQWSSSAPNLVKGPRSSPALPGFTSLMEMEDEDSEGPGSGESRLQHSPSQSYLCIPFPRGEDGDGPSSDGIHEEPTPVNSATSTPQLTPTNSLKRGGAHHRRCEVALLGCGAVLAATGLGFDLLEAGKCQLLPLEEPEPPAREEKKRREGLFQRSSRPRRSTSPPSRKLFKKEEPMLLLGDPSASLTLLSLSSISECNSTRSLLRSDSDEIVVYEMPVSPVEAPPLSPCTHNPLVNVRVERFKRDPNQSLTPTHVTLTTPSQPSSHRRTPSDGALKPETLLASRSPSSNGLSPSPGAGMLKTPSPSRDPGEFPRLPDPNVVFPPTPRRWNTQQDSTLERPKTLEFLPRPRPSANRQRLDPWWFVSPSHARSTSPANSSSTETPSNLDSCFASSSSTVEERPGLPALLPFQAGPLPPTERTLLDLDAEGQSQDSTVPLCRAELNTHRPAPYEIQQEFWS

Structure (SMILES)	residual activity [1] [%]	residual activity [2] [%]	residual activity [3] [%]	residual activity [4] [%]	residual activity [5] [%]	residual activity (Homo sapiens) [%]	residual activity [6] [%]	residual activity [7] [%]
CC1=C(C(=O)Nc2cc3cn[nH]c3cc2F)C(c2ccc(C(F)(F)F)cc2)CC(=O)N1 (stereo unspecified)	95	89	–	–	–	–	–	–
CCN(CC)CCNC(=O)c1c(C)[nH]c(/C=C2\C(=O)Nc3ccc(F)cc32)c1C	–	–	15	–	–	–	–	–
C[C@@H](N)[C@H]1CC[C@H](C(=O)Nc2ccncc2)CC1	–	–	–	50	80	79	101	90
O=S(=O)(c1cccc2cnccc12)N1CCCNCC1 [FASUDIL]	–	–	–	69	107	46	112	56
CCn1c(-c2nonc2N)nc2cnc(Oc3cccc(NC(=O)c4ccc(OCCN5CCOCC5)cc4)c3)cc21 [GSK-269962A]	27	31	39	–	–	–	–	–
